In US20260103465A1, “GLYCOGEN SYNTHASE KINASE 3 INHIBITORS AND USES THEREOF” (The Broad Institute, Inc., priority 2023, published 2026):
Read-outs that look alike come from different tables or passages of the source.

Columns and labels:
[1] = target: T1, GSK3b (GST-full length GSK3b) (Homo sapiens, UniProt P49841); assay: GSK3b TR-FRET kinase inhibition assay; assay type: biochemical
T1 construct: GST-full length GSK3b: [SignalChem G08-9G]; purchased SignalChem G08-9G
Summary of the method: (§1)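 IC50 derived from normalized 665/615 TR-FRET signal (Tb anti-pSer641 antibody, streptavidin-d2), read after EDTA stop. Reaction: 1 nM GST-full-length enzyme, 30 min compound pre-incubation, 100 min at ambient temperature in Tris pH 7.5 with 1% DMSO, 200 nM biotinylated primed glycogen synthase peptide, ATP 2 μM to 1 mM.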

[2] = Human liver microsomal stability; assay type: in vitro ADME; conditions: human liver microsomes
Method: Stability of compound (5 μL of a 10 mM DMSO solution) in human liver microsomes was tested in duplicate by incubating compound at 1 μM for 60 minutes at 37° C. Compound level at 60 minutes was compared to level at 0 minutes, and percent remaining was calculated. Order by selecting Microsomal Stability in Prometheus, checking boxes for desired species. Assay Controls: microsomes with NADPH without compound-matrix interference. Microsomes plus compound without NADPH—non-enzymatic instability.

[3] = target: T2, GSK3a (GST-full length GSK3a) (Homo sapiens, UniProt P49840); assay: GSK3a TR-FRET kinase inhibition assay; assay type: biochemical
T2 construct: GST-full length GSK3a [SignalChem G08-10G]; purchased SignalChem G08-10G
T2 sequence (P49840 whole entry): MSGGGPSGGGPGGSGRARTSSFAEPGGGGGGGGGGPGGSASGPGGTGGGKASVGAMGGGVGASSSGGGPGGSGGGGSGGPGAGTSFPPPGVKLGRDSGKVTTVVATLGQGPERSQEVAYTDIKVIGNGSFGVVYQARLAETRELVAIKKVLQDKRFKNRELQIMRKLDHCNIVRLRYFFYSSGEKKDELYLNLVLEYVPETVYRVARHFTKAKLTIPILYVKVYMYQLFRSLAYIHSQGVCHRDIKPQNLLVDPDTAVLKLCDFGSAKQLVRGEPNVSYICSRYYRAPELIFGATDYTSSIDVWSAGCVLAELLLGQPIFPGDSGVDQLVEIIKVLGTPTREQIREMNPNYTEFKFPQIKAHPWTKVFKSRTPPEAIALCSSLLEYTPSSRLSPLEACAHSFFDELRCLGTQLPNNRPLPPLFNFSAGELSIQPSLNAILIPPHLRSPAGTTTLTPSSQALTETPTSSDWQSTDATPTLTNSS
Summary of the method: as §1

[4] = test system: MDR1-MDCK cell monolayers; assay: MDR1/MDCK permeability assay; assay type: in vitro ADME; conditions: Table 4; for MDCK Permeability (MDR1-MDCK); Mean; Papp(A-B) (10^−6 cm/s): A to B; for MDCK Permeability (MDR1-MDCK); Mean; Papp(B-A) (10^−6 cm/s): B to A; for MDCK Permeability (MDR1-MDCK); Mean; P. Ratio(B-A/A-B) Efflux Ratio: Papp B-A/A-B
Source text: The MDR1/MDCK assay is run at WuXi and Absorption Systems. This assay is used to determine the blood-brain barrier (BBB) penetration potential of a test compound using MDR1-MDCK cell monolayers. Catalog number EA203.
• The percent recovery of the test compound from the Transwell® wells containing MDR1-MDCK cell monolayers • The apparent permeability (Papp) in both directions • The efflux ratio (Papp B to A)/(Papp A to B) • The blood-brain barrier penetration potential classification: • High when • Papp A to B≥3.0×10^−6 cm/s, and efflux<3.0 • Moderate when • Papp A to B≥3.0×10^−6 cm/s, and 10>efflux≥3.0 • Low when either • Papp A to B≥3.0×10^−6 cm/s, and […], or when • Papp A to B<[…].
• Test compound at 5 μM in HBSSg with maximum DMSO concentration not greater than 1%.
• Confluent monolayers of MDR1-MDCK cells, 7 to 11 days old.
• Receiver well with 1% BSA in modified Hanks buffer (HBSSg) • Apical and basolateral side at pH 7.4 • Dose two monolayers in each direction (N=2) • Dose apical side for (A to B) assessment • Dose basolateral side for (B to A) assessment • Sample both apical and basolateral sides at 120 minutes • Determine the concentrations of test compound using a generic LC-MS/MS method with a minimum 4 point calibration curve.
• The quality of the cell monolayer batch is verified using control compounds before monolayers are released for use • The quality of each monolayer used in the assay is verified by a TEER measurement and by calculating the Papp for a control compound.

[5] = 2 μM ATP, read-out: GSK3β TR-FRET 2 μM ATP GMean IC50
[6] = 1 mM ATP, Table 4, read-out: GSK3β TR-FRET 1 mM ATP GMean IC50
[7] = 4 μM ATP, read-out: GSK3α TR-FRET 4 μM ATP GMean IC50
[8] = 1 mM ATP, Table 4, read-out: GSK3α TR-FRET 1 mM ATP GMean IC50

T1 sequence (P49841 whole entry): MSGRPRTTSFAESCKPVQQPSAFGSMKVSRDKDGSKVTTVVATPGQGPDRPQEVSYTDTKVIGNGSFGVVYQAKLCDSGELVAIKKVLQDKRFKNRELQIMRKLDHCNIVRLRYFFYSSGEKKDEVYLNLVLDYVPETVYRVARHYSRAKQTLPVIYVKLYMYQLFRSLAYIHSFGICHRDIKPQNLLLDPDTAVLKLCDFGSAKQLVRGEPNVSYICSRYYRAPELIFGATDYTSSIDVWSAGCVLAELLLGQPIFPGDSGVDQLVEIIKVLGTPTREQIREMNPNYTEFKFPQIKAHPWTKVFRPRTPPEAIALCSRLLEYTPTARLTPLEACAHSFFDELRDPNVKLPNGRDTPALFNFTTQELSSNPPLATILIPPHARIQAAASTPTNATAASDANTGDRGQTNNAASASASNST

| SMILES | IC50 [1, 5] [nM] | IC50 [1, 6] [nM] | Microsome Stability (Human) (DMPK_BIIB); Mean; in vitro t1/2 ([2]; Table 4) [min] | IC50 [3, 7] [nM] | IC50 [3, 8] [nM] | MDCK Permeability (MDR1-MDCK); Mean; Papp(A-B) (10^−6 cm/s) [4] | MDCK Permeability (MDR1-MDCK); Mean; Papp(B-A) (10^−6 cm/s) [4] | MDCK Permeability (MDR1-MDCK); Mean; P. Ratio(B-A/A-B) Efflux Ratio [4] | IC50 ([1]; 10 μM ATP, read-out: GSK3b 10 μM ATP Average IC50) [nM] | IC50 ([1]; 100 μM ATP, read-out: GSK3b 100 μM ATP Average IC50) [nM] | IC50 ([1]; 1 mM ATP, Table 3, read-out: GSK3b TR-FRET 1 mM ATP Average IC50) [nM] | Microsome Stability (Human) (DMPK_BIIB); Mean; in vitro t1/2 ([2]; Table 3) [min] | IC50 ([3]; 10 μM ATP, read-out: GSK3a 10 μM ATP Average IC50) [nM] | IC50 ([3]; 100 μM ATP, read-out: GSK3a 100 μM ATP Average IC50) [nM] | IC50 ([3]; 1 mM ATP, Table 3, read-out: GSK3a TR-FRET 1 mM ATP Average IC50) [nM] |
| --- | --- | --- | --- | --- | --- | --- | --- | --- | --- | --- | --- | --- | --- | --- | --- |
| CCC1(c2ccccc2)C2=C(Nc3ncccc31)C(F)C(C)(C)CC2=O (single isomer, unassigned) [Compound 1006C] | 1000 to 5000 |  | 37 | 1000 to 5000 |  | 18 10^−6 cm/s | 31 10^−6 cm/s | 1.8 |  |  |  |  |  |  |  |
| CCC1(c2cccc(-c3ccccn3)c2)C2=C(CC(C)(C)CC2=O)Nc2ncccc21 (single isomer, unassigned) [Compound 1016A] | ≤ 100 |  | 1.5 | ≤ 100 |  | 4.5 10^−6 cm/s | 32 10^−6 cm/s | 6.9 |  |  |  |  |  |  |  |
| CCC1(c2cccc(-c3ccncc3C)c2)C2=C(CC(C)(C)CC2=O)Nc2ncc(F)cc21 (single isomer, unassigned) [Compound 1031B] | ≤ 100 |  | 19 | ≤ 100 |  | 6.2 10^−6 cm/s | 22 10^−6 cm/s | 3.6 |  |  |  |  |  |  |  |
| CCC1(c2ccccc2)C2=C(CC3(CCC3)CC2=O)Nc2ncccc21 (single isomer, unassigned) [Compound 110B] |  |  | 1.7 |  |  | 13 10^−6 cm/s | 27 10^−6 cm/s | 2.1 |  |  |  |  |  |  |  |
| CCC1(c2ccccc2)C2=C(CC(C)(C)CC2=O)Nc2ncc(C(F)(F)F)cc21 (single isomer, unassigned) [Compound 133B] |  |  | 73 |  |  | 11 10^−6 cm/s | 16 10^−6 cm/s | 1.5 |  |  |  |  |  |  |  |

Now from value to compound:

| IC50 [1, 5] [nM] | IC50 [1, 6] [nM] | Microsome Stability (Human) (DMPK_BIIB); Mean; in vitro t1/2 ([2]; Table 4) [min] | IC50 [3, 7] [nM] | IC50 [3, 8] [nM] | MDCK Permeability (MDR1-MDCK); Mean; Papp(A-B) (10^−6 cm/s) [4] | MDCK Permeability (MDR1-MDCK); Mean; Papp(B-A) (10^−6 cm/s) [4] | MDCK Permeability (MDR1-MDCK); Mean; P. Ratio(B-A/A-B) Efflux Ratio [4] | IC50 ([1]; 10 μM ATP, read-out: GSK3b 10 μM ATP Average IC50) [nM] | IC50 ([1]; 100 μM ATP, read-out: GSK3b 100 μM ATP Average IC50) [nM] | IC50 ([1]; 1 mM ATP, Table 3, read-out: GSK3b TR-FRET 1 mM ATP Average IC50) [nM] | Microsome Stability (Human) (DMPK_BIIB); Mean; in vitro t1/2 ([2]; Table 3) [min] | IC50 ([3]; 10 μM ATP, read-out: GSK3a 10 μM ATP Average IC50) [nM] | IC50 ([3]; 100 μM ATP, read-out: GSK3a 100 μM ATP Average IC50) [nM] | IC50 ([3]; 1 mM ATP, Table 3, read-out: GSK3a TR-FRET 1 mM ATP Average IC50) [nM] | SMILES |
| --- | --- | --- | --- | --- | --- | --- | --- | --- | --- | --- | --- | --- | --- | --- | --- |
| ≤ 100 | 100 to 1000 | 4.7 | ≤ 100 | 100 to 1000 | 4.4 10^−6 cm/s | 24 10^−6 cm/s | 5.5 |  |  |  |  |  |  |  | CCC1(c2cccc(-c3ccnc4c3CCCC4)c2)C2=C(CC(C)(C)CC2=O)Nc2ncc(F)cc21 (single isomer, unassigned) [Compound 165B] |
| ≤ 100 |  | 5.6 | ≤ 100 |  | 2.7 10^−6 cm/s | 26 10^−6 cm/s | 9.6 |  |  |  |  |  |  |  | CCC1(c2cccc(-c3ccncc3OC)c2)C2=C(CC(C)(C)CC2=O)Nc2ncc(F)cc21 (single isomer, unassigned) [Compound 1037B] |
| ≤ 100 | 100 to 1000 | 9.9 | ≤ 100 | ≤ 100 | 2.3 10^−6 cm/s | 41 10^−6 cm/s | 18 | ≤ 100 | ≤ 100 | 100 to 1000 | 16 | ≤ 100 | ≤ 100 | 100 to 1000 | CCC1(c2cccc(-c3cncn3C(C)C)c2)C2=C(CC(C)(C)CC2=O)Nc2ncccc21 (single isomer, unassigned) [Compound 149A] |
